Assay results from paper PMC11460631, “Inhibition of transient receptor potential vanilloid 3 channels by antimalarial hydroxychloroquine alleviates TRPV3-dependent dermatitis” (The Journal of Biological Chemistry, 2024).
Where a chain is given by its changes, count along the chain named.

Columns and labels:
TRPV3 L591A mutant = target: T1, TRPV3 L591A mutant (Homo sapiens, UniProt Q8NET8, L591A); assay: Whole-cell recording of TRPV3 L591A mutant; type: cell-based
T1 construct: YFP or GFP; expressed in transfected cells; host or cells: HEK293T
T1 sequence (Q8NET8 1-790 L591A): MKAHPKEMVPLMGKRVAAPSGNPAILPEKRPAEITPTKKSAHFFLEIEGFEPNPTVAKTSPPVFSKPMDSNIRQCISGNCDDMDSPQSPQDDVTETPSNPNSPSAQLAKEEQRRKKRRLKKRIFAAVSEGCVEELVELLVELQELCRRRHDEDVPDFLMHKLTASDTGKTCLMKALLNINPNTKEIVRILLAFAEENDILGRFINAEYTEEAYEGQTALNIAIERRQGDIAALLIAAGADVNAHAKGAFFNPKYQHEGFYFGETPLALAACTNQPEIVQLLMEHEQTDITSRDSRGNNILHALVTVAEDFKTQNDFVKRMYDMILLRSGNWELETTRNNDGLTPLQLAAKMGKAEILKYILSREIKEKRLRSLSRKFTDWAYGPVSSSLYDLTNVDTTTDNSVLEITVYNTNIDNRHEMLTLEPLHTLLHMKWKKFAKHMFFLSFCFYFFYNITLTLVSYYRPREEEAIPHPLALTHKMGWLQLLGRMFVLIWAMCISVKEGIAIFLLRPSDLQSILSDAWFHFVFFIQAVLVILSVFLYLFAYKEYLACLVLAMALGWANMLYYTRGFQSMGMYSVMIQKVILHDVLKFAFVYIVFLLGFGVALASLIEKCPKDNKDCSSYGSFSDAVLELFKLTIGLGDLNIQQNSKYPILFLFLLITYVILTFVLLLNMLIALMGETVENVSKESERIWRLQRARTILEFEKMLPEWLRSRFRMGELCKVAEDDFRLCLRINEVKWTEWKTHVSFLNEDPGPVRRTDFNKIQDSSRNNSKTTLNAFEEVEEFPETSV
Source text: (§1) As we mentioned above, HCQ may act as a pore blocker of TRPV3. To probe the binding configuration of HCQ to TRPV3, we carried out molecular docking using Rosetta suite (https://rosettacommons.org) ([21]) and validated the docking models with point mutations in TRPV3 (Fig. 4A). […] Furthermore, when we introduced L670A to L591A mutant, we also observed a left shift on the concentration–response curve on this double mutant as compared to L591A mutant (Fig. 4H).
(§2) Figure 4 Residues of the pore domain are critical for HCQ inhibition on TRPV3.A, left panel, docking model of HCQ to the pore domain of TRPV3 structure (6uw4). Right panels, top view and side view of the HCQ-binding pocket. B-J, representative whole-cell recording of TRPV3 and mutants in response to 1 mM 2-APB, the mixture of 1 mM 2-APB and concentration gradients of HCQ with the holding potential of ± 80 mV. K, concentration–response curves of HCQ in WT TRPV3 and mutants (n = 3–5 cells). L, quantification of the inhibitory ratio of HCQ (100 μM) on WT, L591A, and N671Q. […]
(§3) All data from whole-cell recordings were analyzed in Igor Pro (WaveMetrics). IC50 values were determined by fitting the Hill equation to concentration-response relationships. […]

[1] = target: T2, TRPV3 I637 alanine mutation (Homo sapiens, UniProt Q8NET8, I637A); assay: Whole-cell recording of TRPV3 I637 alanine mutant; type: cell-based; settings: 1 mM 2-APB, ± 80 mV
T2 construct: YFP or GFP; expressed in transfected cells; host or cells: HEK293T
T2 sequence (Q8NET8 1-790 I637A): T1 sequence (Q8NET8 1-790 L591A) with A591L, I637A
Source text: as §1, §2, §3

`CCN(CCO)CCCC(C)Nc1ccnc2cc(Cl)ccc12` (stereo not drawn) [HCQ, hydroxychloroquine] showed an inhibition at 100 µM (TRPV3 L591A mutant; 100 μM HCQ) of 28.4%, an IC50 (TRPV3 L591A mutant; 1 mM 2-APB, ± 80 mV) of 203 ± 10.8 µM and an IC50 [1] of 0.14 ± 0.02 µM.
